In PubChem BioAssay AID720495 (Broad Institute, 2013):
Records with an inconclusive call do not appear. Calls of active or inactive are those of the source. The rule behind the calls is not given here.

Molecular target: Protein AF-9 (Homo sapiens) (UniProt P42568)
Test: inhibitors of AF4-AF9 protein interaction, dose response, biochemical, cherry-picked samples, plate reader (AID 720495)
Conditions: biochemical protein-protein interaction assay

Chain of Protein AF-9 (Homo sapiens) (P42568 whole entry, looked up): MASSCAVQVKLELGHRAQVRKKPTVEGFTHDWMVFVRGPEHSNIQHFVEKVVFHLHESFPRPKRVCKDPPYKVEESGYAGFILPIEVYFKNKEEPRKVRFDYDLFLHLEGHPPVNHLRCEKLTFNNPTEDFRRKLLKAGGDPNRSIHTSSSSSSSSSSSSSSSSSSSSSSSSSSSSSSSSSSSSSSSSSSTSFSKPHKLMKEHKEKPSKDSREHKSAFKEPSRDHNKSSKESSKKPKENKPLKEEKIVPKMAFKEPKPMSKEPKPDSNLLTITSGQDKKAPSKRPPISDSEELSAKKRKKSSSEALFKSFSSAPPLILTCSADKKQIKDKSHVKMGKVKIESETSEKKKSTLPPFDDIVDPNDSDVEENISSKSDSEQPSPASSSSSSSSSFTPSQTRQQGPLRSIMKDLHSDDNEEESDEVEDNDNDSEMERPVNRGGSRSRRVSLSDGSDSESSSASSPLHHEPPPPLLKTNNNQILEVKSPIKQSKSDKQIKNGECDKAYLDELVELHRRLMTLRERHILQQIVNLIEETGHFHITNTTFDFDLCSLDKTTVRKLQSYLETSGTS

Compound | AC50 [µM]
CCC(=O)N1CC2(CCN(Cc3ccc(Cl)cc3)CC2)c2c([nH]c3cc(OC)ccc23)[C@H]1CO | 10.4

Same assay, conditions: biochemical protein-protein interaction assay, at 10 µM (top of the series)

Compound | activity change, negative = inhibition
Cn1ccc2c(/C=C/c3ccc(F)cc3)cc3c(c21)C1CCC3C1 (stereo unspecified) | inactive
O=c1c2ccccc2nc(/C=C/c2cccnc2)n1Cc1ccccc1 | inactive
O=C(O)CCNc1ccc(NCCC(=O)O)c2c1C(=O)c1ccccc1C2=O | inactive
O=C(N/N=C/c1cc(Cl)cc([N+](=O)[O-])c1O)c1cccc(S(=O)(=O)N2CCOCC2)c1 | inactive
Cc1c(C)n(Cc2ccccc2)c2ccc(C(=O)OCCN(C)C)cc12 | inactive
C[n+]1c2n(c3ccccc31)N=C(c1cc(C(C)(C)C)c(O)c(C(C)(C)C)c1)CS2 | inactive
CN(C)C(CNC(C(=O)Nc1ccc([N+](=O)[O-])cc1Br)c1ccccc1)c1ccccc1 (stereo unspecified) | inactive
C#CCOCCOCCOCCNc1nc(N2CCN(C(=O)[C@H](CCCCN)n3cc([C@@H](N)[C@H](C)CC)nn3)CC2)nc(N2CCN(C(=O)[C@H](CCC(=O)O)n3cc([C@@H](N)CCCCN)nn3)CC2)n1 | inactive
CN=c1scc(-c2ccccc2F)n1/N=C(\C)c1cccnc1 | inactive
CN(C)c1ccc(C(CNC(=O)c2ccccc2)c2c[nH]c3ccccc23)cc1 (stereo unspecified) | inactive
Cc1ccc(-c2cc(-c3ccc(C)cc3)[n+](-c3ccc(C(=O)[O-])cc3)c(-c3ccc(C)cc3)c2)cc1 | inactive
COCCCNCC(O)COc1cccc2[nH]c(C)cc12 (stereo unspecified) | inactive
CC1C/C(=C/c2cccs2)C(=O)/C(=C/c2cccs2)C1 (stereo unspecified) | inactive
CCN(CC)c1ccc(N=Cc2ccc([N+](=O)[O-])o2)cc1 | inactive
Oc1ccccc1C=NCCCCCCN=Cc1ccccc1O | inactive
Oc1cc2c(cc1O)C1c3ccc(O)c(O)c3OCC1(O)C2 (stereo unspecified) | inactive
Cc1ccc(S(=O)(=O)NC(=O)Nc2ccc(N(C)C)cc2)cc1 | inactive
O=C(NN1C(=O)/C(=C/c2ccc(O)c(O)c2)SC1=S)c1ccccc1 | inactive
CN(C)c1ccc(NC2=C(Cl)C(=O)c3ccccc3C2=O)cc1 | inactive

More lines, now with the values ahead:

activity change, negative = inhibition | Compound
inactive | CC(C)N1CCN(c2ccc(OC[C@H]3CO[C@](Cn4cncn4)(c4ccc(Cl)cc4Cl)O3)cc2)CC1
inactive | CCN(CC)c1ccc(CN2CCC(C(=O)NCc3ccc(C)cc3)CC2)cc1
inactive | C[C@@H]1ON(C)[C@H]2C[C@H]3c4[nH]c5ccc(-c6ccc7c(c6)OCO7)cc5c4CCN3C[C@@H]12
inactive | Cc1c(C)n(Cc2ccc(Cl)cc2)c2ccc(C(=O)NCCCN3CCOCC3)cc12
inactive | Cc1ccc(NC(=S)N(CCCN2CCCC2)Cc2cccn2Cc2ccc(Cl)cc2)cc1
inactive | C[C@@H]1CN([C@H](C)CO)C(=O)c2c(c3ccccc3n2C)-c2ccccc2CO[C@@H]1CN(C)Cc1ccc2c(c1)OCCN2C
inactive | COC(=O)C1=CC(C(=O)c2cccs2)=NN(c2ccc(OC)cc2)C1C(=O)OC (stereo unspecified)
inactive | COc1ccc(N2CCN(C3CCCN(S(=O)(=O)c4ccc(C)cc4C)C3)CC2)cc1 (stereo unspecified)
inactive | CC(C)n1ncc2c(C(=O)Nc3ccc(S(N)(=O)=O)cc3)cc(C3CC3)nc21
inactive | CCOc1ccc(/C=N/Nc2cc(N3CCOCC3)ncn2)c(O)c1
inactive | COc1cc(O)c(C(CCN2CCN(c3ccccc3)CC2)c2ccc(N(C)C)cc2)c(OC)c1 (stereo unspecified)
inactive | Oc1c(C(c2ccc(Cl)cc2)N2CCCC2)cc(Cl)c2cccnc12 (stereo unspecified)
inactive | COc1ccc(N2CCN(C3CCCCC3NS(=O)(=O)c3ccccc3)CC2)cc1 (stereo unspecified)
inactive | COc1ccc(N2CCC(CNC(=S)Nc3ccc(C)cc3C)C2)cc1 (stereo unspecified)
inactive | COc1ccc(OC)c(NC2=C(Cl)C(=O)N(Cc3ccccc3)C2=O)c1
inactive | COc1ccc2sc(N(CCCN(C)C)C(=O)c3ccc(S(=O)(=O)N(C)C4CCCCC4)cc3)nc2c1
inactive | CCN1CCN(Cc2ccc(NC(=O)c3cc(NC(=O)c4nccnc4N)cc(OC)c3)cc2C(F)(F)F)CC1
inactive | CCOC(=O)C1CCCN(C2=C(NS(=O)(=O)c3ccc(Br)cc3)C(=O)c3ccccc3C2=O)C1 (stereo unspecified)
inactive | COc1ccc(CN2CCC(N(CCc3ccccc3)Cc3ccccc3)CC2)c(OC)c1
inactive | Cn1cc(CN2CCC(C(=O)NC(c3ccc(F)cc3)c3ccc4ccccc4n3)CC2)c2ccccc21 (stereo unspecified)
inactive | COc1ccc(N2CCN(CCCNC(=O)C(=O)c3c(C)n(C)c4ccccc34)CC2)cc1
inactive | Cc1cccc(-c2ccc3[nH]c4c(c3c2)CCN2C[C@H]3[C@H](C)ON(C)[C@H]3C[C@@H]42)c1
inactive | COc1ccc(NC2CCCN(Cc3cccc4cnccc34)C2)cc1OC (stereo unspecified)
inactive | COc1ccc(/C=N/N2CCN(c3ccccc3OC)CC2)cc1Br
inactive | CC(C)C1CC(CCNCc2ccc(N(C)C)cc2)(c2ccccc2)CCO1 (stereo unspecified)
inactive | CN(C)CCCN1c2ccccc2Sc2ccc(Cl)cc21
